Patent US10745382B2 (BRISTOL-MYERS SQUIBB COMPANY, priority 2015, dated 2020)

Biological target: T1, PD-1/PD-L1 (Homo sapiens, UniProt Q9NZQ7)
T1 construct: made in house; host or cells: HEK293T
Assay: PD-1/PD-L1 Homogenous Time-Resolved Fluorescence (HTRF) binding assay
Conditions: PD-L1-His 10 nM, PD-1-Ig 20 nM; value given as range class; read-out: Range or IC50
Procedure, shortened: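 Binding was measured by HTRF in dPBS with 0.1% BSA and 0.05% Tween-20. Detection used europium cryptate anti-Ig (1 nM final) and APC anti-His (20 nM final) added over the binding reaction.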

T1 sequence (Q9NZQ7 with tags, fused parts or gaps): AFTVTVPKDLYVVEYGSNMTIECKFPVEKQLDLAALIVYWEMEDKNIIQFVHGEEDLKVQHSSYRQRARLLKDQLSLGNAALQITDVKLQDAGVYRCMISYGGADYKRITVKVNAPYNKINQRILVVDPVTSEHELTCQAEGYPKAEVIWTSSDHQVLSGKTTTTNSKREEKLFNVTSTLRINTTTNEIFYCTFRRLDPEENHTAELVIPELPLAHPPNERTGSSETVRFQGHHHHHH

Row | IC50 | SMILES
1 | 0.21 to 10 nM | Cc1c(COc2cc(OCc3cncc(C#N)c3)c(CNC3(C(=O)O)CC3)cc2Cl)cccc1-c1cccc(OCCCN2CC[C@@H](O)C2)c1C [Example 4110, (R)-1-((5-chloro-2-((5-cyanopyridin-3-yl)methoxy)-4-((3′-(3-(3-hydroxypyrrolidin-1-yl)propoxy)-2,2′-dimethyl-[1,1′-biphenyl]-3-yl)methoxy)benzyl)amino)cyclopropane-1-carboxylic Acid]
2 | 10 to 100 nM | Cc1c(COc2cc(OCc3cncc(C#N)c3)c(CO)cc2Cl)cccc1-c1cccc(OCCCNC(CO)(CO)CO)c1Cl [Example 2041, 5-((4-chloro-5-((2′-chloro-3′-(3-((1,3-dihydroxy-2-(hydroxymethyl)propan-2-yl)amino)propoxy)-2-methyl-[1,1′-biphenyl]-3-yl)methoxy)-2-(hydroxymethyl)phenoxy)methyl)nicotinonitrile]
3 | 0.21 to 10 nM | Cc1c(COc2cc(OCc3cncc(C(N)=O)c3)c(CN[C@H](CO)C(=O)O)cc2Cl)cccc1-c1cccc(OCCCN2CCC(O)(C(=O)O)CC2)c1 [Example 1032, (R)-1-(3-((3′-((5-((5-carbamoylpyridin-3-yl)methoxy)-4-(((1-carboxy-2-hydroxyethyl)amino)methyl)-2-chlorophenoxy)methyl)-2′-methyl-[1,1′-biphenyl]-3-yl)oxy)propyl)-4-hydroxypiperidine-4-carboxylic Acid]
4 | 0.21 to 10 nM | Cc1c(COc2cc(OCc3cncc(C#N)c3)c(CN3CCCC[C@H]3C(=O)O)cc2Cl)cccc1-c1cccc(OCCCNC[C@H](O)C(=O)O)c1C [Example 2242, (2S)-1-(4-((3′-(3-((S)-2-carboxy-2-hydroxyethylamino)propoxy)-2,2′-dimethylbiphenyl-3-yl)methoxy)-5-chloro-2-((5-cyanopyridin-3-yl)methoxy)benzyl)piperidine-2-carboxylic Acid]
5 | 0.21 to 10 nM | Cc1c(COc2cc(OCc3cncc(C#N)c3)c(CN3CC[C@@H](O)C3)cc2Cl)cccc1-c1cccc(OCCCN2CC[C@@H](O)C2)c1C [Example 2201, 5-((4-chloro-2-(((R)-3-hydroxypyrrolidin-1-yl)methyl)-5-((3′-(3-((R)-3-hydroxypyrrolidin-1-yl)propoxy)-2,2′-dimethylbiphenyl-3-yl)methoxy)phenoxy)methyl)nicotinonitrile]
6 | 0.21 to 10 nM | Cc1c(COc2cc(OCc3cncc(C#N)c3)c(CNC(CO)CO)cc2Cl)cccc1-c1cccc(CN(C)CCN2CCS(=O)(=O)CC2)c1C [Example 4080, 5-((4-chloro-2-(((1,3-dihydroxypropan-2-yl)amino)methyl)-5-((3′-(((2-(1,1-dioxidothiomorpholino)ethyl)(methyl)amino)methyl)-2,2′-dimethyl-[1,1′-biphenyl]-3-yl)methoxy)phenoxy)methyl)nicotinonitrile]
7 | 0.21 to 10 nM | CC(=O)NC1CCN(CCCOc2cccc(-c3cccc(COc4cc(OCc5cncc(C#N)c5)c(CN[C@](C)(CO)C(=O)O)cc4Cl)c3C)c2Cl)C1 (stereo partly drawn) [Example 2019, (2R)-2-((4-((3′-(3-(3-acetamidopyrrolidin-1-yl)propoxy)-2′-chloro-2-methyl-[1,1′-biphenyl]-3-yl)methoxy)-5-chloro-2-((5-cyanopyridin-3-yl)methoxy)benzyl)amino)-3-hydroxy-2-methylpropanoic Acid]
8 | 0.21 to 10 nM | Cc1c(COc2cc(OCc3cncc(C#N)c3)c(CN3CCCC[C@H]3C(=O)O)cc2Cl)cccc1-c1cccc(OCCCNCC(C)(C)CO)c1C [Example 2234, (2S)-1-(5-chloro-2-((5-cyanopyridin-3-yl)methoxy)-4-((3′-(3-(3-hydroxy-2,2-dimethylpropylamino)propoxy)-2,2′-dimethylbiphenyl-3-yl)methoxy)benzyl)piperidine-2-carboxylic Acid]
9 | 10 to 100 nM | Cc1c(COc2cc(OCc3cncc(C#N)c3)c(CN[C@H](CO)C(=O)O)cc2Cl)cccc1-c1cccc(OCC(=O)N2CC[C@@H](O)C2)c1 [Example 1006, (R)-2-((5-chloro-2-((5-cyanopyridin-3-yl)methoxy)-4-((3′-(2-((R)-3-hydroxypyrrolidin-1-yl)-2-oxoethoxy)-2-methyl-[1,1′-biphenyl]-3-yl)methoxy)benzyl)amino)-3-hydroxypropanoic Acid]
10 | 0.21 to 10 nM | Cc1c(COc2cc(OCc3cncc(C#N)c3)c(CN[C@](C)(CO)C(=O)O)cc2Cl)cccc1-c1cccc(OCCCN2CCC(O)(C(=O)O)C2)c1C (stereo partly drawn) [Example 1054, 1-(3-((3′-((4-((((R)-2-carboxy-1-hydroxypropan-2-yl)amino)methyl)-2-chloro-5-((5-cyanopyridin-3-yl)methoxy)phenoxy)methyl)-2,2′-dimethyl-[1,1′-biphenyl]-3-yl)oxy)propyl)-3-hydroxypyrrolidine-3-carboxylic Acid]
11 | 0.21 to 10 nM | Cc1c(COc2cc(OCc3cncc(C#N)c3)c(CN[C@H](CO)C(=O)O)cc2Cl)cccc1-c1cccc(OCCCN2CCC(O)(C(=O)O)CC2)c1 [Example 1033, (R)-1-(3-((3′-((4-(((1-carboxy-2-hydroxyethyl)amino)methyl)-2-chloro-5-((5-cyanopyridin-3-yl)methoxy)phenoxy)methyl)-2′-methyl-[1,1′-biphenyl]-3-yl)oxy)propyl)-4-hydroxypiperidine-4-carboxylic Acid]
12 | 0.21 to 10 nM | CCOC(=O)C1(CO)CCN(CCCOc2cccc(-c3cccc(COc4cc(OCc5cncc(S(C)(=O)=O)c5)c(CN[C@](C)(CO)C(=O)O)cc4Cl)c3C)c2C)C1 (stereo partly drawn) [Example 1044, (2R)-2-((5-chloro-4-((3′-(3-(3-(ethoxycarbonyl)-3-(hydroxymethyl)pyrrolidin-1-yl)propoxy)-2,2′-dimethyl-[1,1′-biphenyl]-3-yl)methoxy)-2-((5-(methylsulfonyl)pyridin-3-yl)methoxy)benzyl)amino)-3-hydroxy-2-methylpropanoic Acid]
13 | 0.21 to 10 nM | Cc1c(COc2cc(OCc3cncc(C#N)c3)c(CN3CCCC[C@H]3C(=O)O)cc2Cl)cccc1-c1cccc(OCCCN2CCC[C@H](O)C2)c1C [Example 2224, (2S)-1-(5-chloro-2-((5-cyanopyridin-3-yl)methoxy)-4-((3′-(3-((S)-3-hydroxypiperidin-1-yl)propoxy)-2,2′-dimethylbiphenyl-3-yl)methoxy)benzyl)piperidine-2-carboxylic Acid]
14 | 100 to 2000 nM | CNC(=O)c1cccc(-c2cccc(COc3cc(OCc4cc(F)cc(F)c4)c(CN4C[C@H](O)C[C@H]4C(=O)O)cc3Cl)c2C)c1C [Example 4025, (2S,4R)-1-(5-chloro-2-((3,5-difluorobenzyl)oxy)-4-((2,2′-dimethyl-3′-(methylcarbamoyl)-[1,1′-biphenyl]-3-yl)methoxy)benzyl)-4-hydroxypyrrolidine-2-carboxylic Acid]
15 | 0.21 to 10 nM | Cc1c(COc2cc(OCc3cncc(C#N)c3)c(CN3CCCC[C@H]3C(=O)O)cc2Cl)cccc1-c1cccc(OCCCN[C@@H](CO)C(C)C)c1C [Example 2237, (2S)-1-(5-chloro-2-((5-cyanopyridin-3-yl)methoxy)-4-((3′-(3-((R)-1-hydroxy-3-methylbutan-2-ylamino)propoxy)-2,2′-dimethylbiphenyl-3-yl)methoxy)benzyl)piperidine-2-carboxylic Acid]
16 | 0.21 to 10 nM | Cc1c(COc2cc(OCc3cncc(C#N)c3)c(CN[C@](C)(CO)C(=O)O)cc2Cl)cccc1-c1cccc(OCCCN2CCC(O)(C(=O)O)CC2)c1C [Example 1037, (R)-1-(3-((3′-((4-(((2-carboxy-1-hydroxypropan-2-yl)amino)methyl)-2-chloro-5-((5-cyanopyridin-3-yl)methoxy)phenoxy)methyl)-2,2′-dimethyl-[1,1′-biphenyl]-3-yl)oxy)propyl)-4-hydroxypiperidine-4-carboxylic Acid]
17 | 0.21 to 10 nM | Cc1c(COc2cc(OCc3cncc(C#N)c3)c(CN[C@@](C)(CO)C(=O)O)cc2Cl)cccc1-c1cccc(OCCCN2CCC(O)(CC(=O)O)C2)c1C (stereo partly drawn) [Example 1517, (2S)-2-((4-((3′-(3-(3-(carboxymethyl)-3-hydroxypyrrolidin-1-yl)propoxy)-2,2′-dimethyl-[1,1′-biphenyl]-3-yl)methoxy)-5-chloro-2-((5-cyanopyridin-3-yl)methoxy)benzyl)amino)-3-hydroxy-2-methylpropanoic acid]
18 | 0.21 to 10 nM | Cc1c(COc2cc(OCc3cncc(C#N)c3)c(CNC(C)(CO)CO)cc2Cl)cccc1-c1cccc(CN(C)CCN2CCS(=O)(=O)CC2)c1C [Example 4082, 5-((4-chloro-2-(((1,3-dihydroxy-2-methylpropan-2-yl)amino)methyl)-5-((3′-(((2-(1,1-dioxidothiomorpholino)ethyl)(methyl)amino)methyl)-2,2′-dimethyl-[1,1′-biphenyl]-3-yl)methoxy)phenoxy)methyl)nicotinonitrile]
19 | 0.21 to 10 nM | Cc1c(COc2cc(OCc3cncc(C#N)c3)c(CN[C@@](C)(CO)C(=O)O)cc2Cl)cccc1-c1cccc(OCCCN2CC[C@@H](O)C2)c1 [Example 1017, (S)-2-((5-chloro-2-((5-cyanopyridin-3-yl)methoxy)-4-((3′-(3-((R)-3-hydroxypyrrolidin-1-yl)propoxy)-2-methyl-[1,1′-biphenyl]-3-yl)methoxy)benzyl)amino)-3-hydroxy-2-methylpropanoic Acid]
20 | 0.21 to 10 nM | COc1c(COc2cc(OCc3cncc(C#N)c3)c(CN[C@](C)(CO)C(=O)O)cc2Cl)cccc1-c1cccc(OCCCN2CC[C@@H](O)C2)c1C [Example 3025, (R)-2-((5-chloro-2-((5-cyanopyridin-3-yl)methoxy)-4-((3′-(3-((R)-3-hydroxypyrrolidin-1-yl)propoxy)-2-methoxy-2′-methyl-[1,1′-biphenyl]-3-yl)methoxy)benzyl)amino)-3-hydroxy-2-methylpropanoic Acid]

Row | SMILES | IC50
21 | Cc1c(COc2cc(OCc3cncc(C#N)c3)c(CN[C@@H](CNC(=O)OC(C)(C)C)C(=O)O)cc2Cl)cccc1-c1cccc(C(=O)N2CCOCC2)c1C [Example 4056, (S)-3-((tert-butoxycarbonyl)amino)-2-((5-chloro-2-((5-cyanopyridin-3-yl)methoxy)-4-((2,2′-dimethyl-3′-(morpholine-4-carbonyl)-[1,1′-biphenyl]-3-yl)methoxy)benzyl)amino)propanoic Acid] | 100 to 2000 nM
